The nature of data set [1]: Inhibition of TXB2 production in Sprague-Dawley rat whole blood at 10 uM. In kind it is functional, tissue-based.
Data set [2] addresses T1, Cytosolic phospholipase A2 (Homo sapiens, UniProt P47712).
T1 sequence (P47712 whole entry): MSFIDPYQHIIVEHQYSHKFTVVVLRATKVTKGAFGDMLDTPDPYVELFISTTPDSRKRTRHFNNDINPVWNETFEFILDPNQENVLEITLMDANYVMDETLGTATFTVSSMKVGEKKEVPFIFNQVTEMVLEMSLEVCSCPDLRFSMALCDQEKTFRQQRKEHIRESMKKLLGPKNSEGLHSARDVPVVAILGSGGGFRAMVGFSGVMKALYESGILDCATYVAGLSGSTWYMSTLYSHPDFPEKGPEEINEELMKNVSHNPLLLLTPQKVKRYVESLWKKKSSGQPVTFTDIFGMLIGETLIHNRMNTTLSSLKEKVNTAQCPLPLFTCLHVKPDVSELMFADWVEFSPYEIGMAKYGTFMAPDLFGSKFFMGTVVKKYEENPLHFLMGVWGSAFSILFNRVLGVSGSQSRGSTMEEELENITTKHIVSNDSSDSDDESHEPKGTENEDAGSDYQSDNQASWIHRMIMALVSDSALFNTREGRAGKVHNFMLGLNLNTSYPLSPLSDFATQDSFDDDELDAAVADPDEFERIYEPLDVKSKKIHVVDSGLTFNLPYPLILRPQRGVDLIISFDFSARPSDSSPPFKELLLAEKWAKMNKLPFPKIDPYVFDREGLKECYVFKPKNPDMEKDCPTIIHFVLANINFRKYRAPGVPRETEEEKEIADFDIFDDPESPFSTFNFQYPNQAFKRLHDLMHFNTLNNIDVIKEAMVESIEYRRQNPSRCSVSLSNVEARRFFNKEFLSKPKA
Briefly: Inhibition of cytosolic phospholipase A2-alpha in GLU micelle assay.

The nature of data set [3]: Inhibition of PGF2-alpha production in MC9 cells at 1.5 uM. The following applies: Mus musculus. In kind it is functional.
Data set [4] is described as follows: Inhibition of TXB2 production in human whole blood. In kind it is functional, tissue-based.
A short description of data set [5]: Inhibition of LTB4 production in human whole blood. Type of data set: functional, tissue-based.
Data set [6] in a line: Inhibition of PGF2-alpha production in the presence of exogenous arachidonic acid in MC9 cell at 1.5 uM. Type of data set: functional. The following applies: Mus musculus.
Data set [7] can be described thus: Inhibition of TXB2 production in Sprague-Dawley rat whole blood. Type of data set: functional, tissue-based.
Data set [8] in a line: Plasma concentration in rat. Type of data set: ADME, organism-based.
Data set [9] is described as follows: Oral bioavailability in rat. In kind it is ADME, organism-based. To be noted: in vivo.
The nature of data set [10]: Inhibition of LTB4 production in MC9 cells at 1.5 uM. Type of data set: functional. To be noted: Mus musculus.

As to `Cc1c(CCOc2ccc(C(=O)O)cn2)c2cc(Cl)ccc2n1C(c1ccccc1)c1ccccc1`, the results for the IC50 result in data set [1] and in data set [2] were “Not Active” and 85 µM, respectively.
`Cc1c(CCOc2ccc(C(=O)O)cc2)c2cc(Cl)ccc2n1C(c1ccccc1)c1ccccc1`: the inhibition at 1.5 µM in [3] is 81%; in [6] it was -8%; in [10] it was 96%. The IC50 in data set [4] is 34 µM; in data set [5], 30 µM; in [7], 7 µM; in [2], 3 µM. The compound also came in with a clearance in data set [8] of 3.2 mL/min/kg. In addition, in [9], the bioavailability came to 2.6%.

As usually defined, the IC50 is the concentration that inhibits the measured activity by half. A low value points to higher potency. Usually inhibition stands for the relative decrease from the control value, in per cent. What is called clearance is a measure of how efficiently the substance is removed, as volume per time. A low value points to inefficient removal. The bioavailability is dose-corrected exposure relative to a reference, in per cent. The low end stands for little systemic uptake, the high end for much systemic uptake.

The values are drawn from ChEMBL document CHEMBL1148601, “Inhibition of cytosolic phospholipase A2alpha: hit to lead optimization” (J Med Chem, 2006).
